Tests used:
ccl2 promoter = test: ChIP of NF-κB and IRF-1 at the ccl2 promoter in primary astrocytes; assay type: cell-based, mouse
From the text: FIGS. 4a-m. B4GALT6 regulates ccl2 transcriptional activity in astrocytes. (a) Murine ccl2 promoter. (b) Luciferase activity in 293T cells transfected with the ccl2 luciferase reporter plus one of the following constructs encoding IRF-1, p65 or an empty control vector (Empty). Results are relative to secreted alkaline phosphatase activity, presented as fold induction from empty vector. Data from three independent experiments, statistical analysis by Student's t-test. (c) ChIP analysis of the interaction of NF-κB, and IRF-1 with the ccl2 promoter in primary cultured astrocytes, pre-treated with PDMP and LacCer and activated with LPS/IFNγ (as in FIG. 3), 2 hours following LPS/IFNγ induction. (d-h) Recruitment of inflammatory monocytes (defined either as of CD11b^+ Ly6C^high or CD11b^+CD45^high cells) to the CNS of EAE NOD mice treated with PDMP or vehicle, as in (FIG. 1k), analyzed by flow cytometry and presented as cell frequency (e, g) and total cell numbers (f, h). Representative data of three independent experiments. […] (i) The frequency and number of CD11b^+ Ly6C^high monocytes as determined in the CNS 10 days after the i.c.v. injection of astrocytes-specific shRNA lentivirus as in (FIG. 3j). […] (j) monocytes were pre-treated for 1 h with PDMP, LacCer, both (LacCer+PDMP), or vehicle, and monocytes chemotaxis was measured using a transwell chamber system. […]

NF-κB (P65) = test: NF-κB translocation to the nucleus in astrocytes (western blot); assay type: cell-based, mouse; details: LPS/IFNγ; for translocation of NF-κB to the nucleus: cultured astrocytes
Protocol: FIGS. 14a-g. B4GALT6 directly controls astrocyte activation. (a) Cultured astrocytes were pre-treated for 1 h with PDMP (25 μM), LacCer (10 μM), both (LacCer+PDMP), or vehicle control (vehicle), followed by activation with LPS/IFNγ for 6 h, or left un-treated (control, Con). mRNA expression was analyzed 6 h following activation. qPCR analysis of the expression of cc/5, csf2, nos2, il6, H2-Aa, and tlr2 presented relative to gapdh. Statistical analysis by one-way ANOVA, followed by Tukey post-hoc analysis. (b, c) Cultured astrocytes were pre-treated for 1 h with LacCer (b) or PDMP (c), at indicated concentrations, followed by activation with LPS/IFNγ, or left un-treated (control, Con). Cell viability was determined 6 h after activation. […] Working concentrations (as in a) are marked in red. (d) The expression of B4galt6 (shB4galt6) or non-targeting shRNA (ShControl) in primary astrocytes was knocked-down using verified shRNA. Astrocytes were then pre-treated for 1 h with PDMP, or vehicle control (vehicle), followed by activation with LPS/IFNγ for 6 h, or left un-treated (control, Con). mRNA expression for H2-Aa, Ccl5 and Cxcl10 was determined; expression is presented as fold induction relative to housekeeping gene (Gapdh). Statistical analysis by one-way ANOVA, followed by Tukey post-hoc analysis (n≥3). […] (f) NF-κB (P65), GAPDH, and Lamin B expression, in cytoplasmic and nuclear fractions analyzed by western blot. The degree of NF-κB translocation to the nucleus was assessed by the ratio between the expression of P65 in nuclear and cytoplasmic fractions following densitometric quantification on four independent experiments (Right panel). […] (g) Expression of CCL-2 or iNOS in IRF-1^+ GFAP^+ astrocytes determined by IF during chronic EAE. […]
Astrocytes were treated as indicated, and total extracts (30 μg of protein), or the nuclear and cytoplasmic subcellular fractionations of cells, were separated by NuPAGE 10% Bis-Tris Gel (Invitrogen), and electroblotted onto supported nitrocellulose membrane. […] Data quantification was done using Image Studio software (Version 3.1.4) (LI-COR, Inc.)

| Compound | recruitment of NF-κB and IRF-1 to the ccl2 promoter (ccl2 promoter; astrocytes activated with LPS/IFNγ, 2 hours) | translocation of NF-κB to the nucleus (NF-κB (P65)) | recruitment of NF-κB and IRF-1 to the ccl2 promoter, LacCer added to PDMP (ccl2 promoter; LacCer + PDMP, LPS/IFNγ) | NF-κB translocation, LacCer added to PDMP (NF-κB (P65); LacCer + PDMP) |
| --- | --- | --- | --- | --- |
| CCCCCCCCCC(=O)N[C@H](CN1CCOCC1)[C@H](O)c1ccccc1 [PDMP, D-threo-1-phenyl-2-decanoylamino-3-morpholino-1-propanol] | arrested | decreased translocation of NF-κB to the nucleus | – | – |
| lactosylceramide [LacCer] | – | triggered NF-M3 activation | abrogated | abrogated the inhibition induced by PDMP |
